Assay results reported in BindingDB's records for doi:10.1016/j.bmcl.2015.03.051 (Mayo Clinic, 2015).

Key:
[1] = biological target: T1, Cholecystokinin receptor type A (Homo sapiens, UniProt P32238); experiment: Activity at CCK1R (unknown origin) expressed in CHO cells assessed as CCK EC50 measured as intracellular calcium responses at 100 nM (Rvb = 7 to 14 pM)
T1 sequence (P32238 whole entry): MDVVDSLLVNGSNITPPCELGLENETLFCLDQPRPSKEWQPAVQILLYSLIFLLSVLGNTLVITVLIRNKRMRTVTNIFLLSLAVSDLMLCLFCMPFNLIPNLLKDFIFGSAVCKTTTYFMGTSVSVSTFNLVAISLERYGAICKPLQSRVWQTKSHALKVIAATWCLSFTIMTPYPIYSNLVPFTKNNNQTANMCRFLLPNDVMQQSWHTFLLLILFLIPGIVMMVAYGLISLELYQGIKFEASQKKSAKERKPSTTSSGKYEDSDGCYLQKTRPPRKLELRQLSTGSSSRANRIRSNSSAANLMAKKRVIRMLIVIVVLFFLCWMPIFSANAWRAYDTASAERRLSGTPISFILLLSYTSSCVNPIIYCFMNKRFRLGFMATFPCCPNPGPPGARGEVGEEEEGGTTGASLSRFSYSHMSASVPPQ

[2] = biological target: T1, Cholecystokinin receptor type A; experiment: Activity at CCK1R (unknown origin) expressed in CHO cells assessed as CCK EC50 measured as intracellular calcium responses at 1000 nM (Rvb = 7 to 14 pM)
[3] = biological target: T1, Cholecystokinin receptor type A
[4] = biological target: T1, Cholecystokinin receptor type A; remark: listed apart in the source

Structure (SMILES) | EC50 [1] [nM] | EC50 [2] [nM] | IC50 [3] [nM] | IC50 [4] [nM]
O=C(CN1C(=O)C(NC(=O)Nc2ccccc2)C(=O)N(c2ccccc2)c2ccccc21)Nc1ccccc1 (stereo unspecified) | 0.014 | 0.039 | – | –
COc1ccc(N(C)C(=O)CN2C(=O)C(NC(=O)Nc3ccccc3)C(=O)N(c3ccccc3)c3ccccc32)cc1 (stereo unspecified) [2-[2,4-Dioxo-5-phenyl-3-(3-phenyl-ureido)-2,3,4,5-tetrahydro-benzo[b][1,4]diazepin-1-yl]-N-(4-methoxy-phenyl)-N-methyl-acetamide] | 0.051 | 0.120 | 25 | 14
